Reference: patent US10759794B2, “2-phenyl-3-(piperazinomethyl)imidazo[1,2-A]pyridine derivatives as blockers of task-1 and task-2 channels, for the treatment of sleep-related breathing disorders” (BAYER PHARMA AKTIENGESELLSCHAFT, priority 2015, dated 2020)

Key:
human TASK-1 = human TASK-1 (Homo sapiens (Human), UniProt O14649); experiment: Inhibition of recombinant TASK-1 in stably transfected CHO cells (voltage-sensitive dye, FLIPR); type: cell-based
Description: (§1) B-2. Inhibition of Recombinant TASK-1 and TASK-3 In Vitro
(§2) The investigations on the inhibition of the recombinant TASK-1 and TASK-3 channels were carried out using stably transfected CHO cells. Here, the compounds according to the invention were tested with administration of 40 mM of potassium chloride in the presence of a voltage-sensitive dye using the method described in detail in the following references [Whiteaker et al., Validation of FLIPR membrane potential dye for high-throughput screening of potassium channel modulators, J. Biomol. Screen. 6 (5), 305-312 (2001); Molecular Devices FLIPR Application Note: Measuring membrane potential using the FLIPR® membrane potential assay kit on Fluorometric Imaging Plate Reader (FLIPR®) systems, http://www.moleculardevices.com/reagents-supplies/assay-kits/ion-channels/flipr-membrane-potential-assay-kits]. The activity of the test substances was determined as their ability to inhibit a depolarization induced in the recombinant cells by 40 mM potassium chloride. The concentration which can block half of this depolarization is referred to as IC50.

human TASK-3 = human TASK-3 (Homo sapiens (Human), UniProt Q9NPC2); experiment: Inhibition of recombinant TASK-3 in stably transfected CHO cells (voltage-sensitive dye, FLIPR); type: cell-based
Chain of human TASK-3 (Q9NPC2 whole entry): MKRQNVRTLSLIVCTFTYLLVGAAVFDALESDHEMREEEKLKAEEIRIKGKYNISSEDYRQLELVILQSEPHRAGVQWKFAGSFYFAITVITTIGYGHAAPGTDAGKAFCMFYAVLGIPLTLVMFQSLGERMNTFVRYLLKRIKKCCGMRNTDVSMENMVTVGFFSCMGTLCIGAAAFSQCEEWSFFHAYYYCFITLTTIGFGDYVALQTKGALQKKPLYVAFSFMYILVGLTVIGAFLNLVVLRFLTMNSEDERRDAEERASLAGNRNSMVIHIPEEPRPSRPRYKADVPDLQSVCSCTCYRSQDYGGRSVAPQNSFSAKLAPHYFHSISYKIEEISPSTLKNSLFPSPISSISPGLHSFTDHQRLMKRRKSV
Description: as §1, §2

[1] = depolarization induced by 40 mM potassium chloride, Table 2A
[2] = 40 mM potassium chloride, comparative compounds, Table 2B

Chain of human TASK-1 (O14649 whole entry): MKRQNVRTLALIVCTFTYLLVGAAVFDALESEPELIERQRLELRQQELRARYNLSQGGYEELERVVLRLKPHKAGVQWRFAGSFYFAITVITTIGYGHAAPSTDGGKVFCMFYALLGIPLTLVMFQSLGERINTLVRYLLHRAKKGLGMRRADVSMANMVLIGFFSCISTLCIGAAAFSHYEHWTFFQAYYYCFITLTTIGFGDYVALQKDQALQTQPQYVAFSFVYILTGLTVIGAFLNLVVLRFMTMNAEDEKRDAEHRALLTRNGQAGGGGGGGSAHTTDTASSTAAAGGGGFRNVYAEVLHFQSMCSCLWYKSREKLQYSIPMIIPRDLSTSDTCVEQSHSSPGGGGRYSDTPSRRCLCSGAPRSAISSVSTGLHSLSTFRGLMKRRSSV

Compound	IC50 (human TASK-1; [1]) [µM]	IC50 (human TASK-3; [1]) [µM]	IC50 (human TASK-1; [2]) [µM]	IC50 (human TASK-3; [2]) [µM]
O=C(c1cccc(OCC(F)(F)F)n1)N1CCN(Cc2c(-c3ccc(Cl)cc3)nc3ccccn23)CC1 [Example 38]	1	0.03	–	–
O=C(c1cc(F)ccc1Cl)N1CCN(Cc2c(-c3ccc(Br)cc3)nc3ccccn23)CC1 [Example 6, (4-{[2-(4-Bromophenyl)imidazo[1,2-a]pyridin-3-yl]methyl}piperazin-1-yl)(2-chloro-5-fluorophenyl)methanone]	0.5	0.36	–	–
O=C(c1cc(F)ccc1Cl)N1CCN(Cc2c(-c3ccc(Cl)cc3)nc3ccccn23)CC1 [Example 16]	0.304	0.11	–	–
O=C(c1ccccc1F)N1CCN(Cc2c(-c3ccc(Cl)cc3)nc3ccccn23)CC1 [Example 7, (4-{[2-(4-Chlorophenyl)imidazo [1,2-a]pyridin-3-yl]methyl}piperazin-1-yl)(2-fluorophenyl)methanone]	0.35	0.098	–	–
N#Cc1ccccc1C(=O)N1CCN(Cc2c(-c3ccc(Cl)cc3)nc3ccccn23)CC1 [Example 32]	0.43	0.13	–	–
CCOc1ccccc1C(=O)N1CCN(Cc2c(-c3ccc(Cl)cc3)nc3ccccn23)CC1 [Example 28]	0.51	0.014	–	–
COc1ccc(F)cc1C(=O)N1CCN(Cc2c(-c3ccc(Cl)cc3)nc3ccccn23)CC1 [Example 21]	0.454	0.15	–	–
O=C(c1cccc(Cl)c1)N1CCN(Cc2c(-c3ccc(Cl)cc3)nc3ccccn23)CC1 [Example 36]	0.52	0.19	–	–
CC(C)Oc1cccc(C(=O)N2CCN(Cc3c(-c4ccc(Cl)cc4)nc4ccccn34)CC2)c1 [Example 31]	2.1	1.3	–	–
O=C(C1CCCCC1)N1CCN(Cc2c(-c3ccc(F)cc3)nc3ccccn23)CC1 [Example 8, (4-{[2-(4-Fluorophenyl)imidazo[1,2-a]pyridin-3-yl]methyl}piperazin-1-yl)(cyclohexyl)methanone]	0.893	2.5	–	–
O=C(C1CCCO1)N1CCN(Cc2c(-c3ccc(Cl)cc3)nc3ccccn23)CC1 (stereo not shown) [Example 35]	1.25	0.79	–	–
O=C(c1ccccc1Cl)N1CCN(Cc2c(-c3ccc(Cl)cc3)nc3ccccn23)CC1 [Example 37]	0.37	0.06	–	–
O=C(C1CCC1)N1CCN(Cc2c(-c3ccc(F)cc3)nc3ccccn23)CC1 [Example 49]	1.83	1.7	–	–
COc1ccccc1C(=O)N1CCN(Cc2c(-c3ccc(Cl)cc3)nc3ccccn23)CC1 [Example 20]	0.305	0.052	–	–
Cc1ccccc1C(=O)N1CCN(Cc2c(-c3ccc(Cl)cc3)nc3ccccn23)CC1 [Example 22]	0.387	0.14	–	–
O=C(C1CCC1)N1CCN(Cc2c(-c3ccc(Br)cc3)nc3ccccn23)CC1 [Example 11]	0.378	0.24	–	–

Compound	IC50 (human TASK-1; [1]) [µM]	IC50 (human TASK-3; [1]) [µM]	IC50 (human TASK-1; [2]) [µM]	IC50 (human TASK-3; [2]) [µM]
COc1ccc(Cl)c(C(=O)N2CCN(Cc3c(-c4ccc(Cl)cc4)nc4ccccn34)CC2)n1 [Example 43]	0.22	0.01	–	–
COc1ccc(Cl)c(C(=O)N2CCN(Cc3c(-c4ccc(Cl)cc4)nc4ccccn34)CC2)c1 [Example 29]	1.2	0.099	–	–
O=C(c1cccc(OC(F)(F)F)c1)N1CCN(Cc2c(-c3ccc(Cl)cc3)nc3ccccn23)CC1 [Example 24]	1.14	0.81	–	–
COc1cccc(C(=O)N2CCN(Cc3c(-c4ccc(Br)cc4)nc4ccccn34)CC2)c1 [Example 5, (4-{[2-(4-Bromophenyl)imidazo[1,2-a]pyridin-3-yl]methyl}piperazin-1-yl)(3-methoxyphenyl)methanone]	0.827	0.38	–	–
Cc1ccccc1C(=O)N1CCN(Cc2c(-c3ccc(Br)cc3)nc3ccccn23)CC1 [Example 14]	0.481	0.31	–	–
COc1ccc(F)cc1C(=O)N1CCN(Cc2c(-c3ccc(Br)cc3)nc3ccccn23)CC1 [Example 13]	0.672	0.35	–	–
Cc1ccc(F)cc1C(=O)N1CCN(Cc2c(-c3ccc(Br)cc3)nc3ccccn23)CC1 [Example 15]	1.17	0.38	–	–
O=C(c1cccc(OC2CCOCC2)n1)N1CCN(Cc2c(-c3ccc(Cl)cc3)nc3ccccn23)CC1 [Example 46]	1.2	0.24	–	–
O=C(C1CCCCO1)N1CCN(Cc2c(-c3ccc(Cl)cc3)nc3ccccn23)CC1 (stereo not shown) [Example 30]	1.8	0.4	–	–
Cc1ccc(F)cc1C(=O)N1CCN(Cc2c(-c3ccc(Cl)cc3)nc3ccccn23)CC1 [Example 23]	0.685	0.16	–	–
O=C(c1cccc(OC(F)F)n1)N1CCN(Cc2c(-c3ccc(Cl)cc3)nc3ccccn23)CC1 [Example 44]	0.27	0.017	–	–
CC(C)c1ccccc1C(=O)N1CCN(Cc2c(-c3ccc(Cl)cc3)nc3ccccn23)CC1 [Example 34]	0.4	0.063	–	–
COc1cccc(C(=O)N2CCN(Cc3c(-c4ccc(Cl)cc4)nc4ccccn34)CC2)c1 [Example 19]	0.515	0.3	–	–
COc1cc(C)cc(C(=O)N2CCN(Cc3c(-c4ccc(Cl)cc4)nc4ccccn34)CC2)n1 [Example 40]	1	0.77	–	–
O=C(c1ccccn1)N1CCN(Cc2c(-c3ccc(Cl)cc3)nc3ccccn23)CC1 [Example 26]	0.708	0.59	–	–

More lines, now with the values ahead:

IC50 (human TASK-1; [1]) [µM]	IC50 (human TASK-3; [1]) [µM]	IC50 (human TASK-1; [2]) [µM]	IC50 (human TASK-3; [2]) [µM]	Compound
0.8	0.43	–	–	COc1cccc(C(=O)N2CCN(Cc3c(-c4ccc(C)cc4)nc4ccccn34)CC2)n1 [Example 59]
0.51	0.45	–	–	COc1cccc(C(=O)N2CCN(Cc3c(-c4ccc(C(C)(C)C)cc4)nc4ccccn34)CC2)n1 [Example 64]
0.093	0.0052	–	–	COc1ccc(F)c(C(=O)N2CCN(Cc3c(-c4ccc(Cl)cc4)nc4ccccn34)CC2)n1 [Example 68, (4-{[2-(4-Chlorophenyl)imidazo[1,2-a]pyridin-3-yl]methyl}piperazin-1-yl)(3-fluoro-6-methoxypyridin-2-yl)methanone]
–	–	30	30	O=C(c1ccncc1)N1CCN(Cc2c(-c3ccc(Cl)cc3)nc3ccc(C4CC4)cn23)CC1 [WO 2014/187922 Example 196, reference compound]
1.7	4.6	–	–	N#Cc1ccc(-c2nc3ccccn3c2CN2CCN(C(=O)c3ccccc3F)CC2)cc1 [Example 60]
2.05	1.4	–	–	COc1cccc(C(=O)N2CCN(Cc3c(-c4ccc(C#N)cc4)nc4ccccn34)CC2)n1 [Example 61]
0.642	0.7	–	–	Cc1ccc(-c2nc3ccccn3c2CN2CCN(C(=O)C3CCCC3)CC2)cc1 [Example 56]
0.042	0.0094	–	–	O=C(c1cccc(OC(F)(F)F)n1)N1CCN(Cc2c(-c3ccc(Cl)cc3)nc3ccccn23)CC1 [Example 67, (4-{[2-(4-Chlorophenyl)imidazo [1,2-a]pyridin-3-yl]methyl}piperazin-1-yl) [6-(trifluoromethoxy)pyridin-2-yl]methanone]
1.8	0.35	–	–	COc1ccc(F)c(C(=O)N2CCN(Cc3c(-c4ccc(C#N)cc4)nc4ccccn34)CC2)c1 [Example 70]
1.91	1.9	–	–	COc1ccccc1C(=O)N1CCN(Cc2c(-c3ccc(C)cc3)nc3ccccn23)CC1 [Example 58]
1.5	0.83	–	–	CC(C)(C)c1ccc(-c2nc3ccccn3c2CN2CCN(C(=O)C3CCCC3)CC2)cc1 [Example 66]
1.3	1.6	–	–	N#Cc1ccc(-c2nc3ccccn3c2CN2CCN(C(=O)C3CCCCC3)CC2)cc1 [Example 63]
–	–	30	30	COc1cccc(-c2nc3ccccn3c2CN2CCN(C(=O)C3CCC3)CC2)c1 [WO 2014/187922 Example 208, reference compound]
0.066	0.011	–	–	O=C(c1ccccc1F)N1CCN(Cc2c(-c3ccc(C4CC4)cc3)nc3ccccn23)CC1 [Example 69, (4-{[2-(4-Cyclopropylphenyl)imidazo[1,2-a]pyridin-3-yl]methyl}piperazin-1-yl)(2-fluorophenyl)methanone]
–	–	30	5.7	O=C(c1cnccn1)N1CCN(Cc2c(-c3ccc(Cl)cc3)nc3ccc(C4CC4)cn23)CC1 [WO 2014/187922 Example 263, reference compound]
0.962	2.9	–	–	Cc1ccc(-c2nc3ccccn3c2CN2CCN(C(=O)C3CCCCC3)CC2)cc1 [Example 57]
1.89	1	–	–	O=C(c1cc(F)ccc1Cl)N1CCN(Cc2c(-c3ccc(F)cc3)nc3ccccn23)CC1 [Example 51]
1.62	1.4	–	–	COc1ccc(F)cc1C(=O)N1CCN(Cc2c(-c3ccc(F)cc3)nc3ccccn23)CC1 [Example 50]
0.23	0.016	–	–	COc1ccc(C)c(C(=O)N2CCN(Cc3c(-c4ccc(C#N)cc4)nc4ccccn34)CC2)n1 [Example 71]
0.17	0.017	–	–	COc1ccc(C)c(C(=O)N2CCN(Cc3c(-c4ccc(C(C)(C)C)cc4)nc4ccccn34)CC2)n1 [Example 73]
2.84	1	–	–	CC(C)c1ccc(-c2nc3ccccn3c2CN2CCN(C(=O)c3ccccc3F)CC2)cc1 [Example 53]
1.16	0.56	–	–	COc1ccccc1C(=O)N1CCN(Cc2c(-c3ccc(F)cc3)nc3ccccn23)CC1 [Example 52]
